Measurements: patent US9783536B2, “Nitrogen-containing heterocyclic compound or salt thereof” (FUJIFILM Corporation, priority 2013, dated 2017)
Like-named read-outs stand apart in the source and are kept apart here.

Experiments:
human PI3Kα protein = target: T1, human PI3Kα protein (Homo sapiens, UniProt P42336); experiment: PI3Kα enzyme assay (ADP-Glo); assay type: biochemical; conditions: read-out: PI3Kα enzyme inhibitory activity
T1 construct: purchased Carna Biosciences, Inc; host or cells: baculovirus expression system
T1 sequence (P42336 whole entry): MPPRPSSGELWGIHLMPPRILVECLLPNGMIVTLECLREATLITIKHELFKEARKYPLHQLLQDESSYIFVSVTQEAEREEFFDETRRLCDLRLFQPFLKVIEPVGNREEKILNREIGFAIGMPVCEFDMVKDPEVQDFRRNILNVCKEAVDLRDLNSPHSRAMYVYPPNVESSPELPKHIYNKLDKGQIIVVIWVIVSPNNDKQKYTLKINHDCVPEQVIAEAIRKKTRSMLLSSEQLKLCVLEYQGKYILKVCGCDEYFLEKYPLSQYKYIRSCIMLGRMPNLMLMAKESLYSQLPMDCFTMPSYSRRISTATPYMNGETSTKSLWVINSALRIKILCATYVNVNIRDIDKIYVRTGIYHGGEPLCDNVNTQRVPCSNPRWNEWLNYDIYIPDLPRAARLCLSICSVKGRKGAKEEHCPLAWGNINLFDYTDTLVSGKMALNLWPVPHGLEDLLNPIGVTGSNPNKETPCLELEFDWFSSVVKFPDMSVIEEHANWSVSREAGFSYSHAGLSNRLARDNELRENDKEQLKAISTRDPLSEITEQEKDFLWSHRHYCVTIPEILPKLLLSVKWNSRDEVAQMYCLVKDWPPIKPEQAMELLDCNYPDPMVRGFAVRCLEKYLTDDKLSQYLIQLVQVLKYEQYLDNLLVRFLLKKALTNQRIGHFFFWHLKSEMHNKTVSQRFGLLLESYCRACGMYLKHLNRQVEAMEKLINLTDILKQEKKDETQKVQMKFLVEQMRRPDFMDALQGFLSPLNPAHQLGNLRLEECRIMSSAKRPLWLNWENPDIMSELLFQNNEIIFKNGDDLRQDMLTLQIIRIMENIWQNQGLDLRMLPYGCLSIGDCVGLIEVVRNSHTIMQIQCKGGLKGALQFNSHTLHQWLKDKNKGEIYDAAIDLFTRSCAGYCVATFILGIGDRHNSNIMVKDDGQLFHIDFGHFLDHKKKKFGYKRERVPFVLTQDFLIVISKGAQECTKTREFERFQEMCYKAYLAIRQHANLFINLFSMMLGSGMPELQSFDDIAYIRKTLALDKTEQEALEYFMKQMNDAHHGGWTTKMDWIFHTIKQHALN
T1 sequence (P27986 whole entry partner): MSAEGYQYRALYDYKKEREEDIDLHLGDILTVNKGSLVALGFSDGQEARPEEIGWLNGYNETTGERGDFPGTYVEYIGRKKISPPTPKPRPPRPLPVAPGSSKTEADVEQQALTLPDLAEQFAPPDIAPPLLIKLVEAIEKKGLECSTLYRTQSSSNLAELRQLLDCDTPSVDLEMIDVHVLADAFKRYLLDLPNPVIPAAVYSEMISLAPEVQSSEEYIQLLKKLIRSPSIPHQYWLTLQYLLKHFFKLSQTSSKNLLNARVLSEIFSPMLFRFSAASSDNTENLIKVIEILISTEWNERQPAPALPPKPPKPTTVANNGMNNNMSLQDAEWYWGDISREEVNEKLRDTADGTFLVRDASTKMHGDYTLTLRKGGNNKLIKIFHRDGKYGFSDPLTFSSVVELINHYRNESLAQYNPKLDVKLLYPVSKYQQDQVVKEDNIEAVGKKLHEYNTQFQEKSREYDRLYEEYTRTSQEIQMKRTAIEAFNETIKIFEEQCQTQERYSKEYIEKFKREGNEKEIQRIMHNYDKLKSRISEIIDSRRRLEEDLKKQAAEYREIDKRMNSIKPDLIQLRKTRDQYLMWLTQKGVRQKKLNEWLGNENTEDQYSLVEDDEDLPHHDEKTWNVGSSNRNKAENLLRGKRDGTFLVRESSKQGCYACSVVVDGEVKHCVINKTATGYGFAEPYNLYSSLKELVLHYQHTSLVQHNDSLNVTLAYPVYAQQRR
In short: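 Biotinylated human PI3Kα (baculovirus-expressed, 4.5 nmol/L) pre-incubated 15 min with compound in Tris-HCl pH 7.5, MgCl2, BSA; reaction 60 min at 25° C with 50 μmol/L PIP2 and 100 μmol/L ATP final. ADP quantified by ADP-Glo luminescence; IC50 calculated.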

[1] = target: T2, GST fusion human ERK2 protein (Homo sapiens, UniProt P28482); experiment: ERK2 enzyme assay (2); assay type: biochemical; conditions: read-out: ERK2 enzyme inhibitory activity (2)
T2 construct: purchased Carna Biosciences, Inc; host or cells: E. coli expression system
T2 sequence (P28482 whole entry, the tested form may be a part): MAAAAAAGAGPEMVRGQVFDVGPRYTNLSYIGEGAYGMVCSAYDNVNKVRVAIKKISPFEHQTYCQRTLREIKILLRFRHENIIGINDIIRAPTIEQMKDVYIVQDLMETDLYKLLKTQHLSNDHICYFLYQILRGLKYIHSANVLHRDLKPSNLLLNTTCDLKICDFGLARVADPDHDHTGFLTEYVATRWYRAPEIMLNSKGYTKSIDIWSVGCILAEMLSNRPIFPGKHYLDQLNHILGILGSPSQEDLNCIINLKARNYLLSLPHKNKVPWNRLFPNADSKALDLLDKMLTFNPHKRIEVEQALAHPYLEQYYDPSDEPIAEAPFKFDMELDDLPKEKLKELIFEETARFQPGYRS
In short: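 IC50 values come from mobility-shift measurement of phosphorylated versus unphosphorylated 5-FAM peptide substrate after EDTA quench. Beforehand, compound and 1.25 nmol/L E. coli-expressed GST–human ERK2 stood 15 min at room temperature (pH 7.5), then 1 mmol/L ATP and 4.25 μmol/L substrate (final) were added for 120 min at 25 °C.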

| Compound | IC50 (human PI3Kα protein) | IC50 ([1]; ERK2 enzyme assay (2)) | IC50 [1] |
| --- | --- | --- | --- |
| Cc1nc2ccc(Nc3cc(C(C)C)cnn3)nc2cc1-c1cnn(C)c1 [Example 0849, N-(5-isopropylpyridazin-3-yl)-6-methyl-7-(1-methyl-1H-pyrazol-4-yl)-1,5-naphthyridine-2-amine] | 1000 to 10000 nM | < 1000 nM |  |
| CC(C)c1cnnc(Nc2ccc3ncc(-n4cnc(CCNC(=O)OC(C)(C)C)c4)cc3n2)c1 [Example 0505, tert-Butyl (2-(1-(6-((5-isopropylpyridazin-3-yl)amino)-1,5-naphthyridin-3-yl)-1H-imidazol-4-yl)ethyl)carbamate] | 1000 to 10000 nM | < 1000 nM |  |
| CC(C)c1cnnc(Nc2ccc3ncc(N(C)C)cc3n2)c1 [Example 0627, N^2-(5-isopropylpyridazin-3-yl)-N^7,N^7-dimethyl-1,5-naphthyridine-2,7-diamine] | 1000 to 10000 nM | < 1000 nM |  |
| CC(C)c1cnnc(Nc2ccc3ncc(NS(C)(=O)=O)cc3n2)c1 [Example 0840, N-(6-((5-isopropylpyridazin-3-yl)amino)-1,5-naphthyridin-3-yl)methane sulfonamide] | 1000 to 10000 nM | 1000 to 10000 nM |  |
| Cn1cc(-c2cnc3ccc(Nc4cc(C(C)(C)O)cnn4)nc3c2)cn1 [Example 0543, 2-(6-((7-(1-Methyl-1H-pyrazol-4-yl)-1,5-naphthyridin-2-yl)amino)pyridazin-4-yl)propan-2-ol] | < 1000 nM | < 1000 nM |  |
| COC(CCn1cc(-c2cnc3ccc(Nc4cc(C(C)C)cnn4)nc3c2)cn1)OC [Example 0646, 7-(1-(3,3-dimethoxypropyl)-1H-pyrazol-4-yl)-N-(5-isopropylpyridazin-3-yl)-1,5-naphthyridine-2-amine] | < 1000 nM | < 1000 nM |  |
| CC(C)c1cnnc(Nc2ccc3ncc(-c4cn(C)nc4C(F)(F)F)cc3n2)c1 [Example 0634] | < 1000 nM | < 1000 nM |  |
| COCCOc1cc(-c2nn(C)cc2-c2cnc3ccc(Nc4cc(C(C)C)cnn4)nc3c2)ccn1 [Example 0750, N-(5-isopropylpyridazin-3-yl)-7-(3-(2-(2-methoxyethoxyl)pyridin-4-yl)-1-methyl-1H-pyrazol-4-yl)-1,5-naphthyridine-2-amine] | < 1000 nM | < 1000 nM |  |
| CC(C)c1cnnc(Nc2ccc3ncc(-c4cnn(CC#N)c4)cc3n2)c1 [Example 0928, 2-(4-(6-((5-isopropylpyridazin-3-yl)amino)-1,5-naphthyridin-3-yl)-1H-pyrazol-1-yl)acetonitrile] | < 1000 nM |  | < 1000 nM |
| CC(C)c1cnnc(Nc2ccc3ncc(N4CC(NS(C)(=O)=O)C4)cc3n2)c1 [Example 0867] | < 1000 nM | < 1000 nM |  |
| CC(C)c1cnnc(Nc2ccc3ncc(-c4cnn(Cc5cscn5)c4)cc3n2)c1 [Example 0449] | < 1000 nM | < 1000 nM |  |
| Cc1ccncc1-c1nn(C)cc1-c1cnc2ccc(Nc3cc(C(C)C)cnn3)nc2c1 [Example 0736] | < 1000 nM | 1000 to 10000 nM |  |
| Cc1ccc(-c2nn(C)cc2-c2cnc3ccc(Nc4cc(C(C)C)cnn4)nc3c2)cc1 [Example 0767, N-(5-isopropylpyridazin-3-yl)-7-(1-methyl-3-(4-methylphenyl)-1H-pyrazol-4-yl)-1,5-naphthyridine-2-amine] | < 1000 nM | < 1000 nM |  |
| CC(C)c1cnnc(Nc2ccc3ncc(-c4cn(C)nc4-c4ccc(OCCN5CCCCC5)cc4)cc3n2)c1 [Example 0778] | < 1000 nM | < 1000 nM |  |

Continued, values first:

| IC50 (human PI3Kα protein) | IC50 ([1]; ERK2 enzyme assay (2)) | IC50 [1] | Compound |
| --- | --- | --- | --- |
| < 1000 nM | < 1000 nM |  | CC(C)c1cnnc(Nc2ccc3ncc(-c4cnn(CCCN5CC(NC(=O)C(F)(F)F)C5)c4)cc3n2)c1 [Example 0696] |
| < 1000 nM | < 1000 nM |  | CC(C)c1cnnc(Nc2ccc3ncc(-c4cnn(CC(F)F)c4)cc3n2)c1 [Example 0467] |
| < 1000 nM | < 1000 nM |  | CC(C)c1cnnc(Nc2ccc3ncc(-c4cnn(C(C)c5ccccn5)c4)cc3n2)c1 (centres unmarked) [Example 0414] |
| < 1000 nM | < 1000 nM |  | CC(C)c1cnnc(Nc2ccc3ncc(-c4cnn(CCOC5CN(C)C5)c4)cc3n2)c1 [Example 0741, N-(5-isopropylpyridazin-3-yl)-7-(1-(2-((1-methylazetidin-3-yl)oxy)ethyl)-1H-pyrazol-4-yl)-1,5-naphthyridine-2-amine] |
| < 1000 nM | < 1000 nM |  | CC(C)c1cnnc(Nc2ccc3ncc(-c4cn(C)nc4NC4CCOCC4)cc3n2)c1 [Example 0832] |
| < 1000 nM |  | < 1000 nM | CC(C)c1cnnc(Nc2ccc3ncc(-c4cnn(C)c4)c(-c4cccnc4)c3n2)c1 [Example 0954, N-(5-isopropylpyridazin-3-yl)-7-(1-methyl-1H-pyrazol-4-yl)-8-(pyridin-3-yl)-1,5-naphthyridine-2-amine] |
| < 1000 nM |  | 1000 to 10000 nM | CC(C)c1cnnc(Nc2ccc3ncc(NC4COC4)cc3n2)c1 [Example 0904] |
| < 1000 nM | < 1000 nM |  | CC(=O)Nc1ccc(-c2nn(C)cc2-c2cnc3ccc(Nc4cc(C(C)C)cnn4)nc3c2)cn1 [Example 0459] |
| < 1000 nM | 1000 to 10000 nM |  | CC(=O)N1CCC(Nc2cnc3ccc(Nc4cc(C(C)C)cnn4)nc3c2)CC1 [Example 0540, 1-(4-((6-((5-Isopropylpyridazin-3-yl)amino)-1,5-naphthyridin-3-yl)amino)piperidin-1-yl)ethanone] |
| < 1000 nM | < 1000 nM |  | CC(=O)N1CCN(CCCn2cc(-c3cnc4ccc(Nc5cc(C(C)C)cnn5)nc4c3)cn2)CC1 [Example 0434] |
| < 1000 nM | < 1000 nM |  | CC(C)c1cnnc(Nc2ccc3ncc(-c4cnn(CC(CN5CCOCC5)OCC5CC5)c4)cc3n2)c1 (centres unmarked) [Example 0745] |
| < 1000 nM | < 1000 nM |  | CC(C)c1cnnc(Nc2ccc3ncc(-c4cnn(CCCN5CC(OCC(F)(F)F)C5)c4)cc3n2)c1 [Example 0699] |
| < 1000 nM | < 1000 nM |  | CC(C)c1cnnc(Nc2ccc3ncc(-c4cnn(CC(O)CN5CCOCC5)c4)cc3n2)c1 (centres unmarked) [Example 0729] |
| < 1000 nM | < 1000 nM |  | CC(C)c1cnnc(Nc2ccc3ncc(-c4cnn(C5CCN(CCO)CC5)c4)cc3n2)c1 [Example 0480, 2-(4-(4-(6-((5-Isopropylpyridazin-3-yl)amino)-1,5-naphthyridin-3-yl)-1H-pyrazol-1-yl)piperidin-1-yl)ethanol] |
| < 1000 nM | < 1000 nM |  | CCOC(CN1CCOCC1)Cn1cc(-c2cnc3ccc(Nc4cc(C(C)C)cnn4)nc3c2)cn1 (centres unmarked) [Example 0811] |
| < 1000 nM | < 1000 nM |  | CC(C)c1cnnc(Nc2ccc3ncc(-c4cn(C)nc4NCc4cccnc4)cc3n2)c1 [Example 0833] |
| < 1000 nM | < 1000 nM |  | CC(C)c1cnnc(Nc2ccc3ncc(-c4cnn(CCCN5CC(C(=O)N6CCOCC6)C5)c4)cc3n2)c1 [Example 0689] |
| < 1000 nM | < 1000 nM |  | CC(=O)N1[C@H](C)CN(CCCn2cc(-c3cnc4ccc(Nc5cc(C(C)C)cnn5)nc4c3)cn2)C[C@@H]1C [Example 0435] |
| < 1000 nM |  | < 1000 nM | COCc1cnnc(Nc2ccc3ncc(-c4cn(C)nc4C)cc3n2)c1 [Example 0923] |
| < 1000 nM | < 1000 nM |  | CC(C)c1cnnc(Nc2ccc3ncc(-c4cn(C)nc4C4CNC4)cc3n2)c1 [Example 0780, 7-(3-(azetidin-3-yl)-1-methyl-1H-pyrazol-4-yl)-N-(5-isopropylpyridazin-3-yl)-1,5-naphthyridine-2-amine] |
